From PMC7549094 (Journal of Medicinal Chemistry, 2020)
Converted amounts (≈) assume the structure as drawn.

Experiments:
[1] = microsomal extraction ratio, 1 h incubation in microsomes
hr M1 = target: T1, hr M1 (Homo sapiens, UniProt P11229); assay: receptor profile (Table S4); assay type: binding
T1 sequence (P11229 1-460): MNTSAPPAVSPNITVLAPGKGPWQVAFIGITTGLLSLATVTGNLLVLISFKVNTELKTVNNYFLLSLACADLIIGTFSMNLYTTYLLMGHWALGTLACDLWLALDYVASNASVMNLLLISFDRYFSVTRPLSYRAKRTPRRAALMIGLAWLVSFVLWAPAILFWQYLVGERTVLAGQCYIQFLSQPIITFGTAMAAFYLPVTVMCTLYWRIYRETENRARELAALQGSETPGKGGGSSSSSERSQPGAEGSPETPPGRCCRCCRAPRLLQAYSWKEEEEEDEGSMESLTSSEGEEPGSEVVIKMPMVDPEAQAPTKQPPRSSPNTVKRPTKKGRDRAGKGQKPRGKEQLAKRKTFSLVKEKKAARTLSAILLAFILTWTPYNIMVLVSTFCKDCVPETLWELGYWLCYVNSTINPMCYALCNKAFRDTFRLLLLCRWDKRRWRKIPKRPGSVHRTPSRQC

hr Ad3 = target: T2, hr Ad3 (Homo sapiens, UniProt P0DMS8); assay: receptor profile (Table S4); assay type: binding
T2 sequence (P0DMS8 1-318): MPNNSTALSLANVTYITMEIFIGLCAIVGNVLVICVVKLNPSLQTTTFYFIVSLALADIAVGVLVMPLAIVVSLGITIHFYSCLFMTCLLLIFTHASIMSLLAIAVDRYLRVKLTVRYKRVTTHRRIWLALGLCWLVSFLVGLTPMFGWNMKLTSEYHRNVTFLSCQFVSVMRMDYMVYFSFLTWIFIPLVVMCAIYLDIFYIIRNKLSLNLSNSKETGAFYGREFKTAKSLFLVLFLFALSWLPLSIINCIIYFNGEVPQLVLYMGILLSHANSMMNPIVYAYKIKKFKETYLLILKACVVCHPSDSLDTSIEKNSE

BSEP = BSEP (Homo sapiens, UniProt O95342); assay: receptor profile (Table S4), second BSEP line; settings: human
Sequence of BSEP (O95342 whole entry): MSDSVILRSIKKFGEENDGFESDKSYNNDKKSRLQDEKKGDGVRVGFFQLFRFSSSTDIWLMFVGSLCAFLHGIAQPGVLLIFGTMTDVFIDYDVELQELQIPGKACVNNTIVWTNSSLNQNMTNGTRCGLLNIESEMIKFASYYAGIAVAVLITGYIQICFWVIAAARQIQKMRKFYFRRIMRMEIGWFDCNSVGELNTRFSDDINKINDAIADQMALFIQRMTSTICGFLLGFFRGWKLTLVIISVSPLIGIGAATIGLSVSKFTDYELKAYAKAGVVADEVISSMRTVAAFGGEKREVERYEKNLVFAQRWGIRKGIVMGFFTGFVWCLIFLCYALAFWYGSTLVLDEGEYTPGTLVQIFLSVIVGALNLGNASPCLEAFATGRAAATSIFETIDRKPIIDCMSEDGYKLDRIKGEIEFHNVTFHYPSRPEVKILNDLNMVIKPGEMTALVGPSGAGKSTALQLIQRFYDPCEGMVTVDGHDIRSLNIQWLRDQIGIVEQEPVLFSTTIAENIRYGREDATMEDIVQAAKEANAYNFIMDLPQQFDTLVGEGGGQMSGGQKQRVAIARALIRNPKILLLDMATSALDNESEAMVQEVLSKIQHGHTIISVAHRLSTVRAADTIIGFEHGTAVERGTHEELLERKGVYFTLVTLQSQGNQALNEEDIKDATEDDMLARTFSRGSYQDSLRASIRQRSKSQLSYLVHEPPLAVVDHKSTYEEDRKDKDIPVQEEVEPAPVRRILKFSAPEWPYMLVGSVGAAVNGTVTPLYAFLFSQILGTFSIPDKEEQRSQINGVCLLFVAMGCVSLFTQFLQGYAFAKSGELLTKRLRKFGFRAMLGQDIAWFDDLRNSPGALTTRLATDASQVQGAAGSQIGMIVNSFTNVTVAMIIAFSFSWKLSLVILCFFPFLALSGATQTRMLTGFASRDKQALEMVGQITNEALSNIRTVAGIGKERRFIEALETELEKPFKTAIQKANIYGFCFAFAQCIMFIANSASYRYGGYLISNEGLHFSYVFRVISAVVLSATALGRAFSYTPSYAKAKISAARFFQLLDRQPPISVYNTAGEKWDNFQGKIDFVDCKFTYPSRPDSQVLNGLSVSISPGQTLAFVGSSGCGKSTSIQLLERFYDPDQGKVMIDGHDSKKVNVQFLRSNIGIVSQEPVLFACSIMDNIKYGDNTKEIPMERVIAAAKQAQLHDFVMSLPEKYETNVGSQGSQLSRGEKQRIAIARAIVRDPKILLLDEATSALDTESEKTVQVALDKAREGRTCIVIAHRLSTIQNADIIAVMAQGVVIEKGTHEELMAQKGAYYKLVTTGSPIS

hr BSEP = hr BSEP (Homo sapiens, UniProt O95342); assay: receptor profile (Table S4), second BSEP line; settings: hr BSEP, second line
Sequence of hr BSEP (O95342 whole entry): as above

hr H3 = hr H3 (Homo sapiens, UniProt Q9Y5N1); assay: receptor profile (Table S4); assay type: binding
Sequence of hr H3 (Q9Y5N1 whole entry): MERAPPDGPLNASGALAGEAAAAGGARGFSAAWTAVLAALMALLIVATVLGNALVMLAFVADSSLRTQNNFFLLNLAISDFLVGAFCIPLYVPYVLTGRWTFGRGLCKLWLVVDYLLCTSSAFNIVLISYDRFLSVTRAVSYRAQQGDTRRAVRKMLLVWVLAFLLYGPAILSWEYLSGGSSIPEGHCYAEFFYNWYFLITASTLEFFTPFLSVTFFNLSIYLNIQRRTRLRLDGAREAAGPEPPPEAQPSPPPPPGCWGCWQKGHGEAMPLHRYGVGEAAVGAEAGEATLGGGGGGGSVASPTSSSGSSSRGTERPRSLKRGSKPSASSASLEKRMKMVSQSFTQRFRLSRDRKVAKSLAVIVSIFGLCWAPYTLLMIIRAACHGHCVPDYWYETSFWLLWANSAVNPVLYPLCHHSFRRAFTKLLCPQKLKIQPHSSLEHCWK

hr PPARg ag = target: T3, hr PPARg ag (Homo sapiens, UniProt P37231); assay: receptor profile (Table S4); assay type: biochemical
T3 sequence (P37231 1-505): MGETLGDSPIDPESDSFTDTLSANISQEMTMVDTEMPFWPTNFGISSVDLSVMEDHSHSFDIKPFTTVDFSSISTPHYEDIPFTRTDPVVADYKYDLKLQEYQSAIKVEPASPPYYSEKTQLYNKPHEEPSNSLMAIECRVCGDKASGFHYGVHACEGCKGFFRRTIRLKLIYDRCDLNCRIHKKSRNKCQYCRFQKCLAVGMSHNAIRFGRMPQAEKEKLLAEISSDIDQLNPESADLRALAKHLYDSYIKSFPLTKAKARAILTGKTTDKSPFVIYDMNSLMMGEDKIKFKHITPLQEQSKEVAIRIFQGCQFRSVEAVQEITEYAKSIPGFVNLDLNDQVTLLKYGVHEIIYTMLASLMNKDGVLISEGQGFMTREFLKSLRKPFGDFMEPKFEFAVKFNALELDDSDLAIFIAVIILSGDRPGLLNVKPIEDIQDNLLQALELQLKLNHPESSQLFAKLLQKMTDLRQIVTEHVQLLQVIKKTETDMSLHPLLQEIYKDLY

hr DAT = hr DAT (Homo sapiens, UniProt Q01959); assay: receptor profile (Table S4); assay type: binding
Sequence of hr DAT (Q01959 whole entry): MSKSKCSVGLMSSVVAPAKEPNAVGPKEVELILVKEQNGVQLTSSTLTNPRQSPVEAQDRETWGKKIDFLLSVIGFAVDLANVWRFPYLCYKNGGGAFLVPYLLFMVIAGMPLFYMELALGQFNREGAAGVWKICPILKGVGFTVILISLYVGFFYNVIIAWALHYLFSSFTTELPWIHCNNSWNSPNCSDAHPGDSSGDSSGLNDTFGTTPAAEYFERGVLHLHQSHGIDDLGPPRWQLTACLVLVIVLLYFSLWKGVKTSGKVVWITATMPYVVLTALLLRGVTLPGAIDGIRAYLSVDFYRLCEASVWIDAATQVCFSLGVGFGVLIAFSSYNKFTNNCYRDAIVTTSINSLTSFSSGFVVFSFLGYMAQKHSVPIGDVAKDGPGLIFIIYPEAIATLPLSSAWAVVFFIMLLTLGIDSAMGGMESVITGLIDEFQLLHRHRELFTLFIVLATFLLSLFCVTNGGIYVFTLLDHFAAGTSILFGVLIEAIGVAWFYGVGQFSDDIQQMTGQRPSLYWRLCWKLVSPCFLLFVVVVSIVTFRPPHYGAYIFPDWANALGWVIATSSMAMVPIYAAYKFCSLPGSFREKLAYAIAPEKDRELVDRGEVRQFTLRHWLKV

hr 5-HT2B ag = hr 5-HT2B ag (Homo sapiens, UniProt P41595); assay: receptor profile (Table S4); assay type: biochemical
Sequence of hr 5-HT2B ag (P41595 whole entry): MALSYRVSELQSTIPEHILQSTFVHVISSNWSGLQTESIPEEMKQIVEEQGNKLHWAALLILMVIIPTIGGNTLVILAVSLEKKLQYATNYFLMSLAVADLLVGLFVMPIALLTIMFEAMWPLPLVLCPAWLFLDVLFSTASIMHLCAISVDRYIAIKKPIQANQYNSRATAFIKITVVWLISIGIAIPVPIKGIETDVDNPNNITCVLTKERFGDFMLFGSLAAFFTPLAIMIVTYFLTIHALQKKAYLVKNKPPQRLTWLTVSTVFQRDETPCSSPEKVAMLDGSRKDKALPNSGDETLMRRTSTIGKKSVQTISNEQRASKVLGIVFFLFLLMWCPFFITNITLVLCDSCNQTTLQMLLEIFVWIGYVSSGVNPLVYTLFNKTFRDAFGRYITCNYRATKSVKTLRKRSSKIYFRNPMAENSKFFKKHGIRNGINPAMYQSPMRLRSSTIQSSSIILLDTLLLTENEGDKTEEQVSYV

hr M3 = hr M3 (Homo sapiens, UniProt P20309); assay: receptor profile (Table S4); assay type: binding
Sequence of hr M3 (P20309 whole entry): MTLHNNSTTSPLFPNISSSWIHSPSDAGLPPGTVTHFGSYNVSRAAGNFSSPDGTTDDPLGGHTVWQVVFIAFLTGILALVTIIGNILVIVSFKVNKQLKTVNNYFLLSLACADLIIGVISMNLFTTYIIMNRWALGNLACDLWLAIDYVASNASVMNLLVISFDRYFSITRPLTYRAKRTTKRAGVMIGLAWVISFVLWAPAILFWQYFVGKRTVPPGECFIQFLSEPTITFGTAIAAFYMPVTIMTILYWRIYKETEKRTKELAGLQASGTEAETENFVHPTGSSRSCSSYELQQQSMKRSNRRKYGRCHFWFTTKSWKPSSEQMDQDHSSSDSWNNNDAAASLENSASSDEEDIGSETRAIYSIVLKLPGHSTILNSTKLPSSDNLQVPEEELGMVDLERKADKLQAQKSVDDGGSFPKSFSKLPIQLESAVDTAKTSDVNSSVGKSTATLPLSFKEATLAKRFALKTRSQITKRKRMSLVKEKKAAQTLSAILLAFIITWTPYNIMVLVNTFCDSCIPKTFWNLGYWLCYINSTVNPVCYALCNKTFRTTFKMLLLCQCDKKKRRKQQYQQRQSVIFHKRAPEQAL

[2] = high-throughput solubility pH 6.8; assay type: physicochemical; settings: high-throughput assay format, read-out: HT sol. pH 6.8
hr PPARg antag = target: T4, hr PPARg antag (Homo sapiens, UniProt P37231); assay: receptor profile (Table S4); assay type: biochemical
T4 sequence (P37231 1-505): T3 sequence (P37231 1-505)

hr CB1 ag = hr CB1 ag (Homo sapiens, UniProt P21554); assay: receptor profile (Table S4); assay type: biochemical
Sequence of hr CB1 ag (P21554 whole entry): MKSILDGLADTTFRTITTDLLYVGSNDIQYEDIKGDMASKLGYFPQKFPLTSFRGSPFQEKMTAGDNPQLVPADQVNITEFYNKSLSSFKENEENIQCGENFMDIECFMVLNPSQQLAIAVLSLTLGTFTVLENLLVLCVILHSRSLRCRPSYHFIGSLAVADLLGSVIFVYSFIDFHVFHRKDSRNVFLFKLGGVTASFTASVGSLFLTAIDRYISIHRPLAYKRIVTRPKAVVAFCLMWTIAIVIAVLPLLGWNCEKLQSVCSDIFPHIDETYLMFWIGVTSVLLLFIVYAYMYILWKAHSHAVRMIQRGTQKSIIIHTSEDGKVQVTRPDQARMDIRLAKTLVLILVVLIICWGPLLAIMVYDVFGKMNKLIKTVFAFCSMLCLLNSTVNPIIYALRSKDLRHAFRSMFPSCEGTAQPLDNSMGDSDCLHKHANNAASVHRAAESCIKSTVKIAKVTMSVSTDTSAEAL

hr Alpha2C = target: T5, hr Alpha2C (Homo sapiens, UniProt P18825); assay: receptor profile (Table S4); assay type: binding
T5 sequence (P18825 1-462): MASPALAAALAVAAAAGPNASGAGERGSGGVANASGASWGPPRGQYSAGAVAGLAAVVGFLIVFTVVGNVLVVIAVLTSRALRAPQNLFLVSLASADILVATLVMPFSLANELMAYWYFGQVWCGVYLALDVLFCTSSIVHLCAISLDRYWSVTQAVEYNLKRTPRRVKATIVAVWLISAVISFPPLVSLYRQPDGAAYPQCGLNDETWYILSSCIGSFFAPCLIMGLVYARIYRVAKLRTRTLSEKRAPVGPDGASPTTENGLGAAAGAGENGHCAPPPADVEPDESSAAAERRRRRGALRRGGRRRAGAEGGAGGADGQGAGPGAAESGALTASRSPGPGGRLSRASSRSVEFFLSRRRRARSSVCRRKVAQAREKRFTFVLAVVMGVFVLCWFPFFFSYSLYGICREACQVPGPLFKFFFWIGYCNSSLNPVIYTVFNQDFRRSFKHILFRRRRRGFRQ

Question: With `Cc1nc(C)c(C(=O)Nc2ccc(F)c(-c3nc4ncc(-c5ncccc5C)cn4n3)c2)o1` [compound 1, N-(4-Fluoro-3-(6-(3-methylpyridin-2-yl)-[1,2,4]triazolo[1,5-a]pyrimidin-2-yl)phenyl)-2,4-dimethyloxazole-5-carboxamide] as the molecule, how does the ER rat [1] read?
Answer: < 0.18

Question: And the EC50/IC50 (hr M1; hr M1)?
Answer: > 30 µM

Question: What about the inhibition at 10 µM (hr M1; read-out: % inh/act @ 10 µM) of the same molecule?
Answer: 25%

Question: What about the inhibition at 30 µM (hr M1; read-out: % inh/act @ 30 µM) of the same molecule?
Answer: 26%

Question: What about the EC50/IC50 (hr Ad3; hr Ad3) of the same molecule?
Answer: > 30 µM

Question: What about the inhibition at 10 µM (hr Ad3; read-out: % inh/act @ 10 µM) of the same molecule?
Answer: 8%

Question: What about the inhibition at 30 µM (hr Ad3; read-out: % inh/act @ 30 µM) of the same molecule?
Answer: 37%

Question: What about the inhibition at 10 µM (BSEP) of the same molecule?
Answer: 40%

Question: What about the inhibition at 30 µM (BSEP) of the same molecule?
Answer: 56%

Question: What about the EC50/IC50 (hr BSEP) of the same molecule?
Answer: 17 µM

Question: And the EC50/IC50 (hr H3; hr H3)?
Answer: > 30 µM

Question: What about the inhibition at 10 µM (hr H3; read-out: % inh/act @ 10 µM) of the same molecule?
Answer: 9%

Question: What about the inhibition at 30 µM (hr H3; read-out: % inh/act @ 30 µM) of the same molecule?
Answer: 14%

Question: What about the EC50/IC50 (hr PPARg ag; hr PPARg ag) of the same molecule?
Answer: > 30 µM

Question: And the inhibition at 10 µM (hr PPARg ag; read-out: % inh/act @ 10 µM)?
Answer: 4%

Question: And the inhibition at 30 µM (hr PPARg ag; read-out: % inh/act @ 30 µM)?
Answer: 5%

Question: What about the EC50/IC50 (hr DAT; hr DAT) of the same molecule?
Answer: > 30 µM

Question: And the inhibition at 10 µM (hr DAT; read-out: % inh/act @ 10 µM)?
Answer: 17%

Question: And the inhibition at 30 µM (hr DAT; read-out: % inh/act @ 30 µM)?
Answer: 22%

Question: And the EC50/IC50 (hr 5-HT2B ag; hr 5-HT2B ag)?
Answer: > 30 µM

Question: What about the inhibition at 10 µM (hr 5-HT2B ag; read-out: % inh/act @ 10 µM) of the same molecule?
Answer: -6%

Question: And the inhibition at 30 µM (hr 5-HT2B ag; read-out: % inh/act @ 30 µM)?
Answer: -3%

Question: What about the EC50/IC50 (hr M3; hr M3) of the same molecule?
Answer: > 30 µM

Question: And the inhibition at 10 µM (hr M3; read-out: % inh/act @ 10 µM)?
Answer: 17%

Question: And the inhibition at 30 µM (hr M3; read-out: % inh/act @ 30 µM)?
Answer: 25%

Question: And the solubility kinetic [2]?
Answer: 17 µM (≈ 7.54 µg/mL)

Question: What about the EC50/IC50 (hr PPARg antag; hr PPARg antag) of the same molecule?
Answer: > 30 µM

Question: What about the inhibition at 10 µM (hr PPARg antag; read-out: % inh/act @ 10 µM) of the same molecule?
Answer: -5%

Question: What about the inhibition at 30 µM (hr PPARg antag; read-out: % inh/act @ 30 µM) of the same molecule?
Answer: 16%

Question: What about the EC50/IC50 (hr CB1 ag; hr CB1 ag) of the same molecule?
Answer: > 30 µM

Question: And the inhibition at 10 µM (hr CB1 ag; read-out: % inh/act @ 10 µM)?
Answer: 0%

Question: And the inhibition at 30 µM (hr CB1 ag; read-out: % inh/act @ 30 µM)?
Answer: 3%

Question: What about the EC50/IC50 (hr Alpha2C; hr Alpha2C) of the same molecule?
Answer: > 30 µM

Question: And the inhibition at 10 µM (hr Alpha2C; read-out: % inh/act @ 10 µM)?
Answer: 13%

Question: What about the inhibition at 30 µM (hr Alpha2C; read-out: % inh/act @ 30 µM) of the same molecule?
Answer: 32%
